Residues, ends and D or L forms follow the SMILES beside them.
Assays:
Format in all cases: physicochemical
[1] = Gelation of free N-palmitoyl-Gly-His in 65% (w/w) propylene glycol aqueous solution containing lactic acid and potassium lactate; conditions: 65% (w/w) propylene glycol aqueous solution with 5% (w/w) potassium lactate:lactic acid (95:5)
Experimental: (§1) Free N-palmitoyl-Gly-His (25 mg) obtained in Example 4 was placed in a screw tube (Maruemu Corp., No. 7). Sixty-five percent (w/w) propylene glycol aqueous solution was added so as to have a concentration of 0.25% (w/v), and a mixture of potassium lactate:lactic acid (95:5) was further added so as to have a concentration of 5% (w/w) with respect to the whole solution. The mixture was heated with a dry bath incubator (manufactured by First Gene) at 75° C. for 10 minutes. The obtained solution was transferred into a spray vial (Maruemu Corp., No. 3L), and allowed to cool to room temperature.
as §1, with “N-palmitoyl-Gly-His (80” for “N-palmitoyl-Gly-His (25”, “placed into” for “placed in”, “of 0.2%” for “of 0.25%”, “at 93°” for “at 75°”, “for 5” for “for 10”

[2] = Usable mediums: solubility and gel formation, conventional art vs palmitoyl-Gly-His; conditions: wide variety of mediums including 50 mM citrate buffer pH 5, 50 mM acetate buffer pH 5, ethanol/water with 80% or more ethanol
[3] = Gelation test when adding methylparaben; conditions: aqueous solution of 0.2 wt % methylparaben; 0.25, 0.5 or 1.0 wt % tested
Experimental: An aqueous solution of 0.2 wt % methylparaben was prepared, and into the solution, free N-palmitoyl-Gly-His prepared in Example 4 was added so as to have a concentration of 0.25, 0.5, or 1.0 wt % to prepare a suspended mixture solution. Each mixture solution was heated at 95 to 99° C. until dissolved (for 6 to 25 minutes), and then allowed to cool to room temperature.

[4] = Evaluation of gelation of free N-palmitoyl-Gly-His in glycerin solution
Experimental: Free N-palmitoyl-Gly-His prepared in Example 4 was placed into a screw tube (Maruemu No. 1, manufactured by Maruemu Corp.). Each of the glycerin solutions having various concentrations shown in Table 5 was added into the screw tube so as to have a free N-palmitoyl-Gly-His concentration of 0.2%, 0.25%, 0.5%, or 1% (w/v). The mixture was heated at 100° C. with a constant temperature heat block (manufactured by Nippon Genetics Co., Ltd.), and then allowed to stand at room temperature.
In Table, a sample that formed a gel is shown as “O”, a sample that partially formed a gel is shown as “A”, and a sample without evaluation is shown as “-”.

[5] = Evaluation of gelation of free N-palmitoyl-Gly-His in water and at various pHs; set-up: key: a sample that formed a gel is shown as “O”; a sample that formed a sol is shown as “X”; a sample without evaluation is shown as “-”
Experimental: Free N-palmitoyl-Gly-His prepared in Example 4 was placed into a screw tube (Maruemu No. 1, manufactured by Maruemu Corp.). Each of the various solutions shown in Table 4 was added into the screw tube so as to have a free N-palmitoyl-Gly-His (also called Pal-GH (free)) concentration of 0.1%, 0.2%, 0.5%, 1%, or 2% (w/v). The mixture was heated at 100° C. with a constant temperature heat block (manufactured by Nippon Genetics Co., Ltd.), and then allowed to stand at room temperature.
In Table, a sample that formed a gel is shown as “O”, a sample that formed a sol is shown as “X”, and a sample without evaluation is shown as “-”.

**Q.** What does the source list for `CCCCCCCCCCCCCCCC(=O)NCC(=O)N[C@@H](Cc1c[nH]cn1)C(=O)O` [Example 4, N-Palmitoyl-Gly-His] (HELM PEPTIDE1{[CCCCCCCCCCCCCCCC(=O)[*:2]].G.H}$$$$V2.0)?
**A.** Gelation ([1]; 0.2% (w/v), heated 93° C., 5 minutes): gelation; Gelation ([1]; 0.25% (w/v), heated 75° C., 10 minutes): gelation; Gel formation [2]: can form a gel; Concentration at which a transparent gel was obtained [3]: ≥ 0.5 wt %; Gelation ([4]; 0.2% (w/v), mass fraction glycerin/water + glycerin 0.1): Δ; Gelation ([4]; 0.2% (w/v), mass fraction glycerin/water + glycerin 0.3): Δ; Gelation ([4]; 0.2% (w/v), mass fraction glycerin/water + glycerin 0.5): ◯; Gelation ([4]; 0.2% (w/v), mass fraction glycerin/water + glycerin 0.6): ◯; Gelation ([4]; 0.2% (w/v), mass fraction glycerin/water + glycerin 0.7): ◯; Gelation ([4]; 0.25% (w/v), mass fraction glycerin/water + glycerin 0.1): ◯; Gelation ([4]; 0.25% (w/v), mass fraction glycerin/water + glycerin 0.3): ◯; Gelation ([4]; 0.25% (w/v), mass fraction glycerin/water + glycerin 0.4): ◯; Gelation ([4]; 0.25% (w/v), mass fraction glycerin/water + glycerin 0.5): ◯; Gelation ([4]; 0.25% (w/v), mass fraction glycerin/water + glycerin 0.6): ◯; Gelation ([4]; 0.25% (w/v), mass fraction glycerin/water + glycerin 0.7): ◯; Gelation ([4]; 0.5% (w/v), mass fraction glycerin/water + glycerin 0.1): ◯; Gelation ([4]; 0.5% (w/v), mass fraction glycerin/water + glycerin 0.3): ◯; Gelation ([4]; 0.5% (w/v), mass fraction glycerin/water + glycerin 0.4): ◯; Gelation ([4]; 0.5% (w/v), mass fraction glycerin/water + glycerin 0.5): ◯; Gelation ([4]; 0.5% (w/v), mass fraction glycerin/water + glycerin 0.6): ◯; Gelation ([4]; 0.5% (w/v), mass fraction glycerin/water + glycerin 0.7): ◯; Gelation ([4]; 1.0% (w/v), mass fraction glycerin/water + glycerin 0.1): ◯; Gelation ([4]; 1.0% (w/v), mass fraction glycerin/water + glycerin 0.3): ◯; Gelation ([4]; 1.0% (w/v), mass fraction glycerin/water + glycerin 0.4): ◯; Gelation ([4]; 1.0% (w/v), mass fraction glycerin/water + glycerin 0.5): ◯; Gelation ([4]; 1.0% (w/v), mass fraction glycerin/water + glycerin 0.6): ◯; Gelation ([4]; 1.0% (w/v), mass fraction glycerin/water + glycerin 0.7): ◯; Gelation ([5]; 0.1% (w/v), phosphate buffer solution pH 3): ◯; Gelation ([5]; 0.1% (w/v), phosphoric acid aqueous solution pH 2): ◯; Gelation ([5]; 0.1% (w/v), water): X; Gelation ([5]; 0.2% (w/v), phosphate buffer solution pH 3): ◯; Gelation ([5]; 0.2% (w/v), phosphate buffer solution pH 5): ◯; Gelation ([5]; 0.2% (w/v), phosphate buffer solution pH 6): ◯; Gelation ([5]; 0.2% (w/v), phosphoric acid aqueous solution pH 2): ◯; Gelation ([5]; 0.2% (w/v), water): X; Gelation ([5]; 0.5% (w/v), phosphate buffer solution pH 3): ◯; Gelation ([5]; 0.5% (w/v), phosphate buffer solution pH 5): ◯; Gelation ([5]; 0.5% (w/v), phosphate buffer solution pH 6): ◯; Gelation ([5]; 0.5% (w/v), phosphate buffer solution pH 7.5): ◯; Gelation ([5]; 0.5% (w/v), phosphate buffer solution pH 9): X; Gelation ([5]; 0.5% (w/v), phosphate buffer solution pH 10): X; Gelation ([5]; 0.5% (w/v), phosphoric acid aqueous solution pH 2): ◯; Gelation ([5]; 0.5% (w/v), water): X; Gelation ([5]; 1.0% (w/v), phosphate buffer solution pH 5): ◯; Gelation ([5]; 1.0% (w/v), phosphate buffer solution pH 6): ◯; Gelation ([5]; 1.0% (w/v), phosphate buffer solution pH 7.5): ◯; Gelation ([5]; 1.0% (w/v), phosphate buffer solution pH 9): ◯; Gelation ([5]; 1.0% (w/v), phosphate buffer solution pH 10): ◯; Gelation ([5]; 1.0% (w/v), water): ◯; Gelation ([5]; 2.0% (w/v), phosphate buffer solution pH 9): ◯; Gelation ([5]; 2.0% (w/v), phosphate buffer solution pH 10): ◯; Gelation ([5]; 2.0% (w/v), water): ◯
